Test results published in publication PMC8365602 (Journal of Medicinal Chemistry, 2021).
One block for each compound: values may come before it.

Assays:
[1] = Radical scavenging activity (DPPH); details: 25 μM, positive control
Experimental: Compound 27a was incubated with 2,2-diphenyl-1-picrylhydrazyl (DPPH, Sigma-Aldrich; 50 mM) in ethanol for 30 min, and the absorbance was measured at 520 nm using a Multiskan Spectrum Microplate Reader (Thermo Fisher Scientific).[72] The positive control ascorbic acid (Sigma-Aldrich; 25 μM) scavenged DPPH radicals by 36 ± 11%.

5-LOX [2] = target: T1, 5-LOX (Homo sapiens, UniProt P09917); assay: 5-LOX product formation in activated PMNL; details: PMNL, read-out: 5-LOX PMNL residual activity at 3 μM;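 note: freshly isolated human PMNL in PBS pH 7.4 plus glucose, preincubated 10 min at 37 °C with compound, 5-LOX products (all-trans LTB4 isomers, 5-HETE) quantified by RP-HPLC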
T1 sequence (P09917 1-674): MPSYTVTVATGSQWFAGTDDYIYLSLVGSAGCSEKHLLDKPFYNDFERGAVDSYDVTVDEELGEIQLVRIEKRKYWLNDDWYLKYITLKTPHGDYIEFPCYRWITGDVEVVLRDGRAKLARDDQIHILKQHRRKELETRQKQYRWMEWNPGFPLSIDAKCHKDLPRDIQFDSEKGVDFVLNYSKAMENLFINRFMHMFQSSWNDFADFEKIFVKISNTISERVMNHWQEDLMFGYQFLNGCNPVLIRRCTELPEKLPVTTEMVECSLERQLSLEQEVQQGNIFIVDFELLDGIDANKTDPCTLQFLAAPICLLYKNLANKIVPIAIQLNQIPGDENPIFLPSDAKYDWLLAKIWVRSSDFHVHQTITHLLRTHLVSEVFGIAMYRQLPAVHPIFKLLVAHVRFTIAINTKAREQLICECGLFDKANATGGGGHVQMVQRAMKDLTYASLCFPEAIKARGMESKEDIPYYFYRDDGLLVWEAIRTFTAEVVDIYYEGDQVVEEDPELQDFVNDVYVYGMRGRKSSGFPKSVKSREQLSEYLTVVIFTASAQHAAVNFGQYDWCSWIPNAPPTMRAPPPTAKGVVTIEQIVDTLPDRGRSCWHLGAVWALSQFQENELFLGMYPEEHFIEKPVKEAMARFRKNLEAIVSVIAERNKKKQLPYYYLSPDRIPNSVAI
Experimental: These volunteers regularly donated blood (every 8–12 weeks) and were physically inspected by a clinician.
Erythrocytes were removed by dextran sedimentation and hypotonic lysis. PMNL were obtained from the cell pellet and platelets from the supernatant.
Freshly isolated PMNL (5 × 10^6) suspended in PBS pH 7.4 with 1 mg/mL glucose or freshly withdrawn human whole blood were preincubated with the test compounds for 10 min (or as indicated) at 37 °C. […] The reaction was stopped with an equal volume of methanol.

5-LOX [3] = target: T1, 5-LOX; assay: Tryptophan fluorescence spectroscopy of 5-LOX; format: binding; design: made in house; host or cells: E. coli Bl21 (DE3); details: 5-LOX titrated with compound, 0–10 μM
Experimental: Fluorescence spectroscopy measurements on human recombinant 5-LOX (Abcam, Cambridge, U.K.) were conducted in PBS pH 7.4 at 25 °C using an Edinburgh Instruments FLS920 Series fluorescence spectrophotometer (Livingston, U.K.). […] The concentration range of 5-LOX used through the experiments was 0.3–0.6 μM. 5-LOX was titrated with a stock solution of the test compounds in dimethylformamide to yield an experimental compound concentration in the range of 0–10 μM. The final dimethylformamide concentration was kept under 5%. After each addition, the sample was incubated for 10 min before measurement. The fluorescence emission intensity values were corrected for dilution and background noise. All conditions were measured independently and in duplicate.
The fluorescence spectral shifts were analyzed by monitoring the alterations in the spectral center of mass by estimating the intensity-averaged emission wavelength (⟨λ⟩), as calculated from the following equation, where Fi is the fluorescence emission intensity at wavenumber νi, and the summation was performed over the range of measured F values [drawing 1] 1

5-LOX [4] = target: T1, 5-LOX; assay: Cell-free 5-LOX activity (isolated human recombinant enzyme); details: read-out: 5-LOX enzyme residual activity at 1 μM
Experimental: Human recombinant 5-LOX was expressed in E. coli Bl21 (DE3) cells that were transformed with pT3–5LOX (wt 5-LOX), 5-LOX_3W (triple mutation of Trp102Ala/Trp13Ala/Trp75Ala), or 5-LOX_R (single mutant of the Arg101Asp plasmid) and purified on an ATP-agarose column (Econo-Pac, Bio-Rad, Hercules, CA) by affinity chromatography.[6],[75]
Purified 5-LOX (0.5 μg in PBS pH 7.4 containing 1 mM EDTA and 1 mM ATP) was preincubated with the vehicle (DMSO) or test compounds for 10 min and prewarmed at 37 °C.

monocytes = assay: Monocyte membrane integrity (LDH release); format: cell-based, human; details: higher concentrations (>1 μM)
Experimental: To measure mitochondrial dehydrogenase activity, 3-(4,5-dimethylthiazol-2-yl)-2,5-diphenyltetrazolium bromide (MTT) (20 μL, 5 mg/mL, Sigma-Aldrich) was added to PBMC. After 4 h in the darkness, the formed formazan product was solubilized (10% SDS in 20 mM HCl) and the absorbance was read at 570 nm using a Multiskan Spectrum microplate reader (Thermo Fisher Scientific).[81]
LDH release was measured in monocytes using a CytoTox 96 nonradioactive cytotoxicity assay (Promega, Madison, WI) according to the manufacturer’s instruction using Triton X-100 (0.8%) as the maximum LDH release control.

[5] = Hepatic metabolism in human liver-on-chip; format: in vitro ADME; details: 1 μM, 48 h
Experimental: LCMs, 27a, and 27a metabolites were extracted from PMNL, medium of the liver-on-chip, murine plasma, peritoneal exudate, or homogenized murine tissue as described.[6] In brief, PBS pH 7.4, methanol, chloroform, and saline (final ratio: 14:34:35:17) were successively added together with 13d (9 pmol) as the internal standard. The organic layer was evaporated, and the extracted LCMs were dissolved in methanol.
LCMs, 27a, and 27a metabolites were separated at a flow rate of 0.8 mL/min and a column temperature of 45 °C, with acetonitrile/H2O (10:90) as mobile phase A and acetonitrile as mobile phase B, both acidified with 0.07% formic acid. The linear gradient from A/B = 50:50 to 0:100 within 4.5 min was followed by isocratic elution with A/B = 0:100 for 1 min. MS parameters were adjusted according to Pein et al.[6] and as detailed in Table S3. Signal intensities were normalized to the internal standard 13d, and concentrations were calculated using external calibration curves as specified in Table S3. […]
The medium between the two membranes was renewed, and the vehicle (DMSO), 12a, or 27a were added. […] 12a, 27a, and their metabolites were extracted from the combined fractions and analyzed by UPLC-MS/MS.[6]

[6] = tested on: reconstructed human epidermis (RHE); assay: Experimental atopic dermatitis in reconstructed human epidermis (RHE); format: cell-based; details: 1 μM, control
Experimental: Compound 27a was evaluated in an inflammatory model of RHE by Synelvia S.A.S. (Labège, France) according to the company’s protocol.[88] In brief, primary human keratinocytes were used to generate RHE on polycarbonate filters as described.[88] RHE was allowed to acclimate for 6 days (5% CO2, 37 °C) prior to incubation with 27a (5, 10, 25 μM), dexamethasone (1 μM), or vehicle (0.05% DMSO), and a proinflammatory cytokine cocktail for 4 days at 5% CO2 and 37 °C. The culture medium including compounds and cytokines was changed on days 6, 8, and 10. Each culture condition was repeated three times. Acute cytotoxicity of 27a was excluded at the concentrations studied within 24 h by measuring the mitochondrial dehydrogenase activity (MTT assay).
Morphological changes (i.e., spongiosis and the formation of keratohyalin granules) were evaluated for sections of paraffin-embedded RHEs after hematoxylin-eosin staining.[89] The permeability of the skin barrier was estimated from the transepidermal water loss at the RHE surface.[90] The surface pH was determined with a pH electrode as reported.[89] The permeability of the stratum corneum was addressed by applying Lucifer yellow onto the RHE surface and inspecting the penetration by fluorescence microscopy.[88] TSLP and IL-8 levels were analyzed by ELISA (according to the specifications of Synelvia S.A.S.) in the culture medium on day 2 and day 4 after addition of cytokines, respectively.

[7] = tested on: zymosan-induced murine peritonitis; assay: Zymosan-induced peritonitis in mice; format: in vivo; details: 3 mg/kg p.o., 30 min post zymosan
Experimental: Male CD-1 mice (33–39 g, 6–8 weeks, Charles River Laboratories; Calco, Italy) and female BALB/c mice (20 g, 8 weeks, Charles River Laboratories) were fed with standard rodent chow and water and acclimated for 4 days at a 12 h light and 12 h dark schedule in a constant air-conditioned environment (21 ± 2 °C). Mice were randomly assigned to groups, and experiments were carried out during the light phase.
Zymosan (2 mg/mL in saline, i.p., 0.5 mL, Sigma-Aldrich) was injected at 30 min (i.p.) or 60 min (p.o.) post compound administration. Mice were sacrificed by inhalation of CO2 after another 30 min to determine LTC4 levels, lipid mediator profiles, metabolites, and vascular permeability and after 4 h to analyze LTB4 levels and cell infiltration.[72] Plasma and peritoneal exudates were collected, and cells were counted in exudates after trypan blue staining. Vascular permeability was measured by injection of Evans blue dye (40 mg/kg in saline, 0.3 mL, Sigma-Aldrich) into the tail vain directly before peritonitis induction.[72] The exudate was centrifuged (3000g, 5 min), and the absorbance was measured at 610 nm (DU730 spectrophotometer, Beckman Coulter, Krefeld, Germany). Levels of LTB4 and cysteinyl-LTs (dominated by LTC4) were quantified in the exudate by ELISA (Enzo Life Sciences, Lörrach, Germany) according to the manufacturer’s instructions. Compound 27a, its metabolites, and lipid mediators were extracted and analyzed by UPLC-MS/MS.

SMILES: O=C1O[C@H]([C@@H](O)CO)C(O)=C1O [ascorbic acid, reference compound]
Scavenging of DPPH radicals [1]: 36 ± 11%

remaining activity at 3 µM (5-LOX [2]): 2 ± 0.8%
remaining activity at 1 µM (5-LOX [4]): 0.8 ± 0.2%
LDH release from monocytes at higher concentrations (monocytes): not evident
SMILES: Cc1c(C)c2c(c(C)c1O)CC[C@@](C)(CCCC(C)CCCC(C)CCCC(C)C(=O)O)O2 (stereo partly drawn) [Compound 12a, α-T-13′-COOH]
Shift of spectral center of mass of intrinsic Trp fluorescence of 5-LOX (5-LOX [3]): substantially shifted to a shorter wavelength
Hepatic metabolism [5]: truncated to metabolites with varying side-chain lengths

SMILES: C[C@@H]1C[C@H]2[C@@H]3CCC4=CC(=O)C=C[C@]4(C)[C@@]3(F)[C@@H](O)C[C@]2(C)[C@@]1(O)C(=O)CO [Dexamethasone, reference compound]
Cytokine-induced responses in RHE [6]: suppressed these cytokine-induced responses

SMILES: CC(c1cc2ccccc2s1)N(O)C(N)=O (centres unmarked) [zileuton, reference compound]
Cysteinyl-LTs in the exudate [7]: did not evoke a stronger effect
